Measurements: ChEMBL document CHEMBL5143532, “Discovery of GCC5694A: A potent and selective sodium glucose co-transporter 2 inhibitor for the treatment of type 2 diabetes” (Bioorg Med Chem Lett, 2022)
Active and inactive are the calls of the source. The rule behind the calls is not given here.

Assays:
[1] = target: T1, Sodium/glucose cotransporter 1 (Homo sapiens, UniProt P13866); experiment: Inhibition of human SGLT1 expressed in CHO cells by methyl-alpha-D-glucopyranoside assay; assay type: cell-based
T1 sequence (P13866 whole entry): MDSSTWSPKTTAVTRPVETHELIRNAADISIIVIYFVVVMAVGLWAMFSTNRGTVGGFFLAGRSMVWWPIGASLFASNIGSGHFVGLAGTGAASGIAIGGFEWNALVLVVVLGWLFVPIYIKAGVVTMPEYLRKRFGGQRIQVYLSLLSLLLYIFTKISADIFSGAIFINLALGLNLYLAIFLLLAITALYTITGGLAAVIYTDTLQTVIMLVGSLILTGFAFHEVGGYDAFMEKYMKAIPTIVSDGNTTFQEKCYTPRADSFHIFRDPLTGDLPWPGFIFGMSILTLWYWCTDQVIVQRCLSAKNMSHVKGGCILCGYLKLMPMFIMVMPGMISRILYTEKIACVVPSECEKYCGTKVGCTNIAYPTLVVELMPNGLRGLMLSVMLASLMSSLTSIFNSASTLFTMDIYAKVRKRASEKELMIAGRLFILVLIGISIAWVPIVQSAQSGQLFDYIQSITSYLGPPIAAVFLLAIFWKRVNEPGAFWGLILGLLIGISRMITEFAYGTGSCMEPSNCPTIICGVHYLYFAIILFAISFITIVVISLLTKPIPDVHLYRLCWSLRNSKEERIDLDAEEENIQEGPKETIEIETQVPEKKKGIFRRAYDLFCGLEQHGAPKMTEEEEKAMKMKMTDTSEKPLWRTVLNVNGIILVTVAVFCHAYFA

[2] = Metabolic stability in mouse by LC-MS/MS analysis; assay type: ADME; settings: read-out: Stability
[3] = Selectivity index, ratio of IC50 for human SGLT1 expressed in CHO cells to IC50 for human SGLT2 expressed in CHO cells; assay type: cell-based
[4] = Cmax in Sprague-Dawley rat at 1 mg/kg, iv; assay type: ADME, organism-based; set-up: dose 1 mg/kg, route iv; settings: in vivo
[5] = Oral bioavailability in Sprague-Dawley rat at 5 mg/kg; assay type: ADME, organism-based; settings: in vivo
[6] = AUCinfinity in Sprague-Dawley rat at 1 mg/kg, iv; assay type: ADME, organism-based; set-up: time infinity, dose 1 mg/kg, route iv; settings: in vivo
[7] = Terminal elimination half life in Sprague-Dawley rat at 1 mg/kg, iv; assay type: ADME, organism-based; settings: in vivo, read-out: beta t1/2 (converted)
[8] = AUCinfinity in Sprague-Dawley rat at 5 mg/kg, po; assay type: ADME, organism-based; set-up: time infinity, dose 5 mg/kg, route po; settings: in vivo
[9] = Tmax in Sprague-Dawley rat at 1 mg/kg, iv; assay type: ADME, organism-based; settings: in vivo
[10] = Tmax in Sprague-Dawley rat at 5 mg/kg, po; assay type: ADME, organism-based; settings: in vivo
[11] = tested on: Rattus norvegicus; experiment: Antidiabetic activity in STZ-induced rat model of type 1 diabetes assessed as decrease in hemoglobin A1c level at 0.05 to 0.5 mg/kg for 5 weeks; assay type: functional, organism-based; settings: dose 0.05-0.5 mg/kg
[12] = tested on: Mus musculus; experiment: Antidiabetic activity in type 2 diabetic db/db mouse assessed as decrease in hemoglobin A1c level at 0.05 to 0.5 mg/kg for 5 weeks; assay type: functional, organism-based; settings: dose 0.05-0.5 mg/kg
[13] = Terminal elimination half life in Sprague-Dawley rat at 5 mg/kg, po; assay type: ADME, organism-based; settings: in vivo, read-out: beta t1/2 (converted)
[14] = Cmax in Sprague-Dawley rat at 5 mg/kg, po; assay type: ADME, organism-based; set-up: dose 5 mg/kg, route po; settings: in vivo
[15] = tested on: Rattus norvegicus; experiment: Antidiabetic activity in STZ-induced rat model of type 1 diabetes assessed as decrease in blood glucose level at 0.05 to 0.5 mg/kg for 5 weeks; assay type: functional, organism-based; settings: dose 0.05-0.5 mg/kg
[16] = tested on: Mus musculus; experiment: Antidiabetic activity in type 2 diabetic db/db mouse assessed as decrease in blood glucose level at 0.05 to 0.5 mg/kg for 5 weeks; assay type: functional, organism-based; settings: dose 0.05-0.5 mg/kg
[17] = tested on: Rattus norvegicus; experiment: Increase in urinary glucose excretion in oral-dosed normal Sprague-Dawley rat; assay type: functional, organism-based; settings: Urine, dose 0.1-1 mg/kg
[18] = target: T2, Sodium/glucose cotransporter 2 (Homo sapiens, UniProt P31639); experiment: Inhibition of human SGLT2 expressed in CHO cells by methyl-alpha-D-glucopyranoside assay; assay type: cell-based
T2 sequence (P31639 whole entry): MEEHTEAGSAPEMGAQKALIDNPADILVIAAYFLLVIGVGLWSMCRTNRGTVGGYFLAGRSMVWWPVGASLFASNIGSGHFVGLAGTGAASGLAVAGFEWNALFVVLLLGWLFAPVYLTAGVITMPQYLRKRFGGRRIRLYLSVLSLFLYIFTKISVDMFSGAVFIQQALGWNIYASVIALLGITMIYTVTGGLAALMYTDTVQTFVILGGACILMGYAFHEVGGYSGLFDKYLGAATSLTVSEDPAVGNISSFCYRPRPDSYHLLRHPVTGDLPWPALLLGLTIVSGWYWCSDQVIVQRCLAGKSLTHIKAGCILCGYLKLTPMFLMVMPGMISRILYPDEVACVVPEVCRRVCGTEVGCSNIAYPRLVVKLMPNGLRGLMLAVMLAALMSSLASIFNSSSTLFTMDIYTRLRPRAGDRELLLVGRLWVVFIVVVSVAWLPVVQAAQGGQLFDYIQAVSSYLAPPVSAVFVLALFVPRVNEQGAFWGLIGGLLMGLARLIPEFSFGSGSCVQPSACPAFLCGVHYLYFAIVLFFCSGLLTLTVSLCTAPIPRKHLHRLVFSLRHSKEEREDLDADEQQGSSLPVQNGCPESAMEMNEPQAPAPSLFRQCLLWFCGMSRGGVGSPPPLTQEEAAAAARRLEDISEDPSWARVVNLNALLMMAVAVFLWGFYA

IC50 [1] | half-life [2] | SMILES | Ratio IC50 [3] | other results
400 nM | > 120 min | COc1ccc(Cc2cc([C@@H]3O[C@H](CO)[C@@H](O)[C@H](O)[C@H]3O)c3c(c2Cl)OCC3)cc1 | 261 | 
 | 20.3 min | COc1ccc(Cc2cc([C@@H]3O[C@H](CO)[C@@H](O)[C@H](O)[C@H]3O)c3c(c2C)CCC3)cc1 |  | 
 | 57 min | C=Cc1ccc(Cc2cc([C@@H]3O[C@H](CO)[C@@H](O)[C@H](O)[C@H]3O)c3c(c2Cl)OCC3)cc1 | 441 | 
 | 30.9 min | COc1ccc(Cc2cc([C@@H]3O[C@H](CO)[C@@H](O)[C@H](O)[C@H]3O)c3c(c2Cl)CCC3)cc1 |  | 
556 nM | 44.5 min | CCc1ccc(Cc2cc([C@@H]3O[C@H](CO)[C@@H](O)[C@H](O)[C@H]3O)c3c(c2Cl)OCC3)cc1 | 772 | 
 | 37.6 min | COc1ccc(Cc2cc([C@@H]3O[C@H](CO)[C@@H](O)[C@H](O)[C@H]3O)c3c(c2Cl)CCCO3)cc1 | 17 | 
 |  | CCOc1ccc(Cc2cc([C@@H]3O[C@H](CO)[C@@H](O)[C@H](O)[C@H]3O)ccc2Cl)cc1 [DAPAGLIFLOZIN] |  | Cmax [4]: 1300 ng/mL; bioavailability [5]: 88.4%; AUC(0-inf) [6]: 3010 ng·h/mL; half-life [7]: 174 min; AUC(0-inf) [8]: 13300 ng·h/mL; Tmax [9]: 4.8 min; Tmax [10]: 40.2 min
359 nM | 103 min | OC[C@H]1O[C@@H](c2cc(Cc3ccc(C4CC4)cc3)c(Cl)c3c2CCO3)[C@H](O)[C@@H](O)[C@@H]1O [ENAVOGLIFLOZIN] | 780 | Cmax [4]: 3300 ng/mL; Activity [11]: Active; Activity [12]: Active; bioavailability [5]: 77.4%; half-life [13]: 294 min; AUC(0-inf) [6]: 4180 ng·h/mL; Cmax [14]: 2340 ng/mL; Activity [15]: Active; half-life [7]: 276 min; AUC(0-inf) [8]: 16200 ng·h/mL; Activity [16]: Active; Tmax [9]: 4.8 min; Tmax [10]: 15 min; Activity [17]: Active
 |  | COc1ccc(Cc2cc([C@@H]3O[C@H](CO)[C@@H](O)[C@H](O)[C@H]3O)c3c(c2Br)CCC3)cc1 | 35 | 
9930 nM |  | OC[C@H]1O[C@@H](c2cc(Cc3ccc(C4CCCC4)cc3)c(Cl)c3c2CCO3)[C@H](O)[C@@H](O)[C@@H]1O | 8560 | 
2140 nM | 111 min | CCOc1ccc(Cc2cc([C@@H]3O[C@H](CO)[C@@H](O)[C@H](O)[C@H]3O)c3c(c2Cl)OCC3)cc1 | 1410 | 
 |  | Cc1ccc(Cc2cc([C@@H]3O[C@H](CO)[C@@H](O)[C@H](O)[C@H]3O)c3c(c2Cl)OCC3)cc1 |  | IC50 [18]: 1.44 nM
 |  | COc1ccc(Cc2cc3c(c([C@@H]4O[C@H](CO)[C@@H](O)[C@H](O)[C@H]4O)c2)CCC3)cc1 |  | IC50 [18]: 7.44 nM
 | 42.5 min | COc1ccc(Cc2cc([C@@H]3O[C@H](CO)[C@@H](O)[C@H](O)[C@H]3O)c3c(c2Cl)CCO3)cc1 | 20 | 
1370 nM |  | CCCc1ccc(Cc2cc([C@@H]3O[C@H](CO)[C@@H](O)[C@H](O)[C@H]3O)c3c(c2Cl)OCC3)cc1 | 1170 | 
4940 nM |  | CC(C)c1ccc(Cc2cc([C@@H]3O[C@H](CO)[C@@H](O)[C@H](O)[C@H]3O)c3c(c2Cl)OCC3)cc1 |  | 
6280 nM |  | CCCOc1ccc(Cc2cc([C@@H]3O[C@H](CO)[C@@H](O)[C@H](O)[C@H]3O)c3c(c2Cl)OCC3)cc1 | 5150 | 
